{"source": "patent US20120010148A1", "about": "“COMBINATION THERAPIES USING NAP” (ALLON THERAPEUTICS INC., priority 2008, published 2012)", "key": {"[1]": {"tested_on": "Rat pheochromocytoma cells (PC12)", "assay": "Serum-deprivation survival of PC12 cells, MTS viability assay", "type": "cell-based", "procedure": "The survival-promoting effects of galantamine (an acetylcholine-esterase inhibitor, or AcEI), NAP, and their combinatorial treatment were assessed in cell cultures. Cell culture method was adapted from Calderon et al., J Neurosci Res 56, 620-631 (1999).\nRat pheochromocytoma cells (PC12) were grown in Dulbecco's modified Eagle's medium (DMEM) supplemented with 8% fetal calf serum, 8% horse donor serum, 2 mm L-glutamine, and 1% penicillin-streptomycin solution.\nFor the experiments, cells were harvested, re-suspended, and seeded in 96-well plates at a concentration of 1.5×10^4 cells/well. Cells were pretreated with NAP and Galantamine [Galantamine (0.1, 0.5, 1, 10 μM); NAP (10^−8M, 10^−1° M, 10^−12M, 10^−15M)] 3 hours prior to serum deprivation and during serum deprivation. The assay for cell viability was performed 48 hours after serum deprivation. Calibration method is described below.\nCulture medium was replaced by fresh medium without serum, containing NAP and Galantamine. Cells were incubated for 48 hours and then subject to MTS viability assay.\nPC12 cells were seeded and treated as mentioned above without any drugs for 24 hours, 48 hours, and 72 hours. MTS results are represented by the percentage of viable cells from the serum deprived treatment vs. control treatment."}, "[2]": {"tested_on": "peripheral blood mononuclear cells (PBMCs)", "details": "cited from earlier work"}, "[3]": {"tested_on": "TNF-α, interleukin-16 (IL-16), and IL-12 in macrophages", "details": "cited from earlier work"}, "STOP+/+ mice": {"tested_on": "STOP+/+ mice", "assay": "Behavioral tests in control STOP+/+ mice", "type": "in vivo, mouse", "text": "For the initial comparisons of STOP+/− mice to STOP+/+ mice (littermates), each experimental group included 10-12 mice, 4-12 month-old; mean age 6 months, there were no highly significant differences between the tested ages in terms of the behavioral outcome). The STOP+/+ and STOP+/− male mice received daily (5 days a week) NAP nasal application vehicle as follows below for the duration of 7-10 weeks.\nThe NAP vehicle solution (termed DD), included the following ingredients (per milliliter): 7.5 mg of NaCl, 1.7 mg of citric acid monohydrate, 3 mg of disodium phosphate dihydrate, and 0.2 mg of benzalkonium chloride solution (50%) (Alcalay R N et al., Neurosci Lett, 361(1-3): 128-131 (2004)). […]\nLocomotor activity was measured in 5 consecutive sessions, 3 minutes each and the mean path length in cm of each mouse in the 3 minute sessions per the entire 15 minute period of observation in open field (80 cm diameter) was determined. […]\nThe test is based on visual discrimination between two different objects in an arena of 30 cm×40 cm. […] One hour after the daily intranasal NAP treatment, or clozapine injection, each male mouse was exposed to two identical objects for 5 minutes and the time spent sniffing/touching each object was measured (first daily session). […] The data was analyzed using two different methods. […]"}, "STOP+/− mice": {"tested_on": "STOP+/− mice", "assay": "Object recognition and discrimination test", "type": "in vivo, mouse", "procedure": "The NAP vehicle solution (termed DD), included the following ingredients (per milliliter): 7.5 mg of NaCl, 1.7 mg of citric acid monohydrate, 3 mg of disodium phosphate dihydrate, and 0.2 mg of benzalkonium chloride solution (50%) (Alcalay R N et al., Neurosci Lett, 361(1-3): 128-131 (2004)). NAP or vehicle solution (DD) was administered to mice hand-held in a semisupine position with nostrils facing the investigator. A pipette tip was used to administer 2.5 μl/nostril. The mouse was hand-held until the solution was totally absorbed (10 s). […]\nThe test is based on visual discrimination between two different objects in an arena of 30 cm×40 cm. […] One hour after the daily intranasal NAP treatment, or clozapine injection, each male mouse was exposed to two identical objects for 5 minutes and the time spent sniffing/touching each object was measured (first daily session). Three hours later, the mice were exposed to one familiar and one novel object for 3 minutes and the time spent sniffing/touching each object was measured again (second session, measuring visual memory). The data was analyzed using two different methods. The first method measured the time spent exploring an object, novel or familiar, and compared the two. The second method evaluated the discrimination capacity of the mice between the novel object and the familiar object using the following formula. […]"}, "schizophrenia patients": {"tested_on": "schizophrenia patients", "details": "human clinical trial; cited from earlier work"}}, "note": "“Also recorded” adds a separate entry of the source."}
{"compound": "CC[C@H](C)[C@H](NC(=O)[C@H](CO)NC(=O)[C@@H](NC(=O)[C@@H]1CCCN1C(=O)[C@H](C)NC(=O)[C@@H](N)CC(N)=O)C(C)C)C(=O)N1CCC[C@H]1C(=O)N[C@@H](CCC(N)=O)C(=O)O", "note": "[NAP]", "values": [{"measurement": "protection against extensive cell death", "setting": "[1]; >40% cell death, compared against cultures supplemented with serum, FIG. 7", "value": "Neither NAP nor galantamine protected"}, {"measurement": "protection against serum deprivation", "setting": "[1]; NAP alone, FIG. 5", "value": "provided protection"}, {"measurement": "anti-CD3-/anti-CD28-stimulated proliferation", "setting": "[2]", "value": "suppressed"}, {"measurement": "expression of CD69, CD154 and IFN-γ", "setting": "[2]", "value": "decreased the expression"}, {"measurement": "key inflammatory cytokines TNF-α, IL-16 and IL-12", "setting": "[3]", "value": "downregulates"}, {"measurement": "open field locomotor activity in control mice", "setting": "STOP+/+ mice; STOP+/+ mice, NAP intranasal 0.5 μg/mouse/day", "value": "trend; also recorded: non-significant effect"}, {"measurement": "cognitive performance of control mice", "setting": "STOP+/+ mice; control mice treated with NAP", "value": "did not show improvement in their cognitive performance"}, {"measurement": "object recognition / discrimination of novel object", "setting": "STOP+/− mice; Example 3, STOP+/− male mice, 3 h after first session, NAP intranasal 0.5 μg/mouse/day or clozapine 10 mg/kg IP, FIG. 9", "value": "ameliorated completely the cognitive impairment; also recorded: significantly beneficial"}, {"measurement": "object recognition, discrimination capacity D2 (memory scores)", "setting": "STOP+/− mice; Example 4, STOP+/− mice, NAP 0.5 microgram/mouse/day, clozapine 3 mg/kg/day, versus pooled controls, FIG. 12", "value": "effective to increase memory scores"}, {"measurement": "activity in schizophrenia patients", "setting": "schizophrenia patients", "value": "shown activity"}]}
